Results on 13 compounds are retold here after ChEMBL document CHEMBL2062457, “Synthesis and antibacterial activity of desosamine-modified macrolide derivatives” (2012).

In brackets after ≈: the same amount, converted by molar mass. A value given as a limit tells only on which side of the number the result lay.

What all share (format): functional
In assay [1] the test system is Staphylococcus aureus. Briefly: Antibacterial activity against macrolide-susceptible Staphylococcus aureus ATCC 29213.
Assay [2] has as its system Staphylococcus aureus. Briefly: Antibacterial activity against macrolide-resistant Staphylococcus aureus ATCC 33591 constitutively expressing ermA.
Assay [3] concerns Staphylococcus aureus. Briefly: Ratio of MIC for macrolide-resistant Staphylococcus aureus ATCC 33591 to MIC for macrolide-susceptible Staphylococcus aureus ATCC 29213.

For the compound `CC[C@H]1OC(=O)[C@H](C)[C@@H](O[C@H]2C[C@@](C)(OC)[C@@H](O)[C@H](C)O2)[C@H](C)[C@@H](O[C@@H]2O[C@H](C)C[C@H](NC)[C@H]2O)[C@](C)(O)C[C@@H](C)C(=O)[C@H](C)[C@@H](O)[C@]1(C)O`, the MIC with Staphylococcus aureus [1] is 8 µg/mL (≈ 11.1 µM); in the assay on Staphylococcus aureus [2], greater than 256 µg/mL.

In the case of `CC[C@H]1OC(=O)[C@H](C)[C@@H](O[C@H]2C[C@@](C)(OC)[C@@H](O)[C@H](C)O2)[C@H](C)[C@@H](O[C@@H]2O[C@H](C)C[C@H](N(C)C(=N)N)[C@H]2O)[C@](C)(OC)C[C@@H](C)C(=O)[C@H](C)[C@@H](O)[C@]1(C)O`, the minimum inhibitory concentration (MIC) against Staphylococcus aureus [1] was 32 µg/mL (≈ 41.2 µM); in the assay on Staphylococcus aureus [2], greater than 256 µg/mL.

Regarding `CCCCN(C)[C@@H]1C[C@H](O[C@@H]2[C@@H](C)C(=O)[C@@H](C)C(=O)O[C@H](CC)[C@@]3(C)OC(=O)N(CCCCn4cnc(-c5cccnc5)c4)[C@@H]3[C@@H](C)C(=O)[C@H](C)C[C@@]2(C)OC)O[C@H](C)C1`, the minimum inhibitory concentration (MIC) with Staphylococcus aureus [1] was 64 µg/mL (≈ 76.4 µM); with Staphylococcus aureus [2] it was greater than 256 µg/mL.

With `CCCCN(C)[C@H]1C[C@@H](C)O[C@@H](O[C@@H]2[C@@H](C)C(=O)[C@@H](C)C(=O)O[C@H](CC)[C@@]3(C)OC(=O)N(CCCCn4cnc(-c5cccnc5)c4)[C@@H]3[C@@H](C)C(=O)[C@H](C)C[C@@]2(C)OC)[C@@H]1O`, the MIC was 0.5 µg/mL (≈ 0.585 µM) in the assay with Staphylococcus aureus [1] and greater than 256 µg/mL against Staphylococcus aureus [2].

With `CC[C@H]1OC(=O)[C@H](C)C(=O)[C@H](C)[C@@H](O[C@H]2C[C@@H](N(C)C)C[C@@H](C)O2)[C@](C)(OC/C=C/c2cnc3ccccc3c2)C[C@@H](C)C(=O)[C@H](C)[C@H]2NC(=O)O[C@@]21C`, the MIC with Staphylococcus aureus [1] is 4 µg/mL (≈ 5.33 µM); with Staphylococcus aureus [2], greater than 256 µg/mL.

For `CC[C@H]1OC(=O)[C@H](C)C(=O)[C@H](C)[C@@H](O[C@@H]2O[C@H](C)C[C@H](N(C)C)[C@H]2O)[C@](C)(OCC=Cc2cnc3ccccc3c2)C[C@@H](C)C(=O)[C@H](C)[C@H]2NC(=O)O[C@@]21C` [CETHROMYCIN], the MIC against Staphylococcus aureus [1] is 0.0075 µg/mL (≈ 0.00979 µM); in the assay on Staphylococcus aureus [2] it was greater than 256 µg/mL. In addition, the Ratio in the assay on Staphylococcus aureus [3] is reported as greater than 10000.

With `CC[C@H]1OC(=O)[C@H](C)[C@@H](O[C@H]2C[C@@](C)(OC)[C@@H](O)[C@H](C)O2)[C@H](C)[C@@H](O[C@H]2C[C@@H](N(C)C)C[C@@H](C)O2)[C@](C)(OC)C[C@@H](C)C(=O)[C@H](C)[C@@H](O)[C@]1(C)O`, the results for the MIC against Staphylococcus aureus [1] and with Staphylococcus aureus [2] were 64 µg/mL (≈ 87.4 µM) and greater than 256 µg/mL, respectively.

On to `CC[C@H]1OC(=O)[C@H](C)[C@@H](O[C@H]2C[C@@](C)(OC)[C@@H](O)[C@H](C)O2)[C@H](C)[C@@H](O[C@@H]2O[C@H](C)C[C@H](NC)[C@H]2O)[C@](C)(OC)C[C@@H](C)C(=O)[C@H](C)[C@@H](O)[C@]1(C)O`, for which the MIC in the assay with Staphylococcus aureus [1] is 4 µg/mL (≈ 5.45 µM); in the assay on Staphylococcus aureus [2] it was greater than 256 µg/mL.

Regarding `CC[C@H]1OC(=O)[C@H](C)C(=O)[C@H](C)[C@@H](O[C@@H]2O[C@H](C)C[C@H](NC)[C@H]2O)[C@](C)(OC)C[C@@H](C)C(=O)[C@H](C)[C@H]2N(CCCCn3cnc(-c4cccnc4)c3)C(=O)O[C@]12C`, the results for the minimal inhibitory concentration (MIC) in the assay with Staphylococcus aureus [1] and in the assay with Staphylococcus aureus [2] were 16 µg/mL (≈ 20.1 µM) and greater than 256 µg/mL, respectively.

`CC[C@H]1OC(=O)[C@H](C)[C@@H](O[C@H]2C[C@@](C)(OC)[C@@H](O)[C@H](C)O2)[C@H](C)[C@@H](O[C@H]2C[C@@H](N(C)C)C[C@@H](C)O2)[C@](C)(O)C[C@@H](C)C(=O)[C@H](C)[C@@H](O)[C@]1(C)O`: the values for the MIC with Staphylococcus aureus [1] and against Staphylococcus aureus [2] were 64 µg/mL (≈ 89.1 µM) and greater than 256 µg/mL, respectively.

Take `CC[C@H]1OC(=O)[C@H](C)C(=O)[C@H](C)[C@@H](O[C@@H]2O[C@H](C)C[C@H](N(C)C)[C@H]2O)[C@](C)(OC)C[C@@H](C)C(=O)[C@H](C)[C@H]2N(CCCCn3cnc(-c4cccnc4)c3)C(=O)O[C@]12C` [TELITHROMYCIN]: the MIC with Staphylococcus aureus [1] is 0.08 µg/mL (≈ 0.0985 µM); in the assay on Staphylococcus aureus [2], greater than 256 µg/mL.

For `CC[C@H]1OC(=O)[C@H](C)[C@@H](O[C@H]2C[C@@](C)(OC)[C@@H](O)[C@H](C)O2)[C@H](C)[C@@H](O[C@@H]2O[C@H](C)C[C@H](N(C)C)[C@H]2O)[C@](C)(O)C[C@@H](C)C(=O)[C@H](C)[C@@H](O)[C@]1(C)O` [ERYTHROMYCIN], the figures for the MIC against Staphylococcus aureus [1] and in the assay with Staphylococcus aureus [2] were 0.5 µg/mL (≈ 0.681 µM) and greater than 256 µg/mL, respectively.

Turning to `CC[C@H]1OC(=O)[C@H](C)C(=O)[C@H](C)[C@@H](O[C@H]2C[C@@H](N(C)C)C[C@@H](C)O2)[C@](C)(OC)C[C@@H](C)C(=O)[C@H](C)[C@H]2N(CCCCn3cnc(-c4cccnc4)c3)C(=O)O[C@]12C`, the MIC in the assay with Staphylococcus aureus [1] is 8 µg/mL (≈ 10.1 µM); against Staphylococcus aureus [2], greater than 256 µg/mL.

For orientation: MIC means the smallest concentration in the dilution series that meets the test's criterion for growth inhibition.
